Test results reported in US8828987B2, “Pyridine amide derivatives as EP4 receptor antagonists” (Rottapharm Biotech S.R.L., priority 2010, dated 2014).

Legend:
human EP4 receptor [1] = molecular target: T1, human EP4 receptor (Homo sapiens, UniProt P35408); experiment: cAMP assay (AlphaScreen) on human EP4 membrane of transfected cells, antagonism of PGE2; type: biochemical; settings: HEK293 hEP4 cell membrane stimulated with PGE2 3 nM; read-out: functional IC50
T1 construct: expressed in transfected cells; membrane fraction used
Source text: (§1) Stable Expression of Human EP4 Receptors in the Human Embryonic Kidney (HEK293) Cell Line
(§2) The cDNA clone of human EP4 receptor (NM_000958.2) was obtained from Invitrogen™: Ultimate™ ORF Clone Collection—Clone ID IOH46525. The coding sequence was subcloned in expression vector pcDNA™6.2/V5-DEST by Gateway technology (Invitrogen™).
(§3) Human embryonic kidney cells (HEK-293) were stably transfected with expression vector for human EP4 receptor in according to the method described in FuGENE®6 Transfection Reagent's manual (Roche Applied Science®).
(§4) Preparation of Membrane Fraction:
(§5) The EP4 transfected cells were grown in Dulbecco's modified Eagle's medium containing 10% fetal bovine serum and 10 μg/ml Blasticidin S HCl (selection medium) at 37° C. in a humidified atmosphere of 5% CO2 in air.
(§6) For the membrane preparation, cells in flask were harvested by hypotonical/mechanical lysis with chilled (4° C.) TE buffer (5 mM TRIS, 5 mM etylenediamine tetra-acetic acid (EDTA), pH 7.4).
(§7) Cells were detached and lysed with 10 ml of hypotonic lysis buffer and by scraping. The cell lysate was vortexed for 30 sec and centrifuged at 40000×g at 4° C. for 22 min.
b) cAMP Assay on Human EP4 Membrane of Transfected Cells.
The assay is based on the competition between endogenous cAMP and exogenously added biotinylated cAMP. The capture of cAMP is achieved by using a specific antibody conjugated to […] beads.
Cell membranes prepared as described above, were resuspended in 1 ml stimulation buffer (HBSS 1×+BSA 0.1%+IBMX 0.5 mM+HEPES 5 mM+MgCl2 10 mM+GTP 1 nM+GDP 10 μM+ATP 100 μM−pH 7.4). Cell membranes were dispensed into white 384-well microplates at final concentration of 1 μg/well and used for the determination of cAMP with the alphascreen cAMP functional assay (EnVision—PerkinElmer). Cell membrane/anti-cAMP Acceptor beads mix (5 μl) and a mixture of analysed compounds (dissolved in 100% DMSO to a final maximal concentration of 0.01% DMSO)/PGE2 (5 μl) were incubated at room temperature (22-23° C.) for 30 min in the dark. The Biotinylated-cAMP and donor beads (15 μl) were dispensed into each well to start the competition reaction. After 1 h incubation RT (22-23° C.) in the dark the plate was read using EnVision platform to determine the cAMP level (excitation: 680 nm; emission: 520,620 nm).
cAMP standard curve (concentration range from 1×10-6 to 1×10-11 M in. log intervals) with a negative control (no cAMP) a positive control:forskolin 10 μM
Antagonism studies were performed stimulating HEK293 cell membrane with PGE2 3 nM. The AlphaScreen signal is plotted as a function of log concentration of cAMP and functional IC50 is determined. IC50 value is calculated by linear regression.
Some compounds were tested according to method of example 83b.

human EP4 receptor [2] = molecular target: T1, human EP4 receptor; experiment: [3H]-Prostaglandin E2 membrane binding assay (human EP4/HEK293 transfectant membranes); settings: [3H]-PGE2 1 nM, hEP4/HEK293 membranes; Ki by Cheng-Prusoff; read-out: Binding pKi (converted)
Source text: as §1, §2, §3, §4, §5, §6, §7
a) Membrane Binding Assay[3H]-Prostaglandin E2
The membrane pellet was resuspended in the same buffer (5 mM TRIS, 5 mM ethylenediamine tetra-acetic acid (EDTA), pH 7.4), and protein concentration was determined by Bradford method (Bio-Bad® assay).
This membrane preparation was stored at −80° C. freezer until use for binding assay.
([^3H]-PGE2) membranes binding assays toward hEP4 receptors (human EP4/HEK293 transfectant, see above) and hEP2 receptors (human EP2/HEK293 transfectant, purchased from PerkinElmer Inc) were performed in 10 mM MES-KOH buffer pH6, containing 10 mM MgCl2 and 1 mM CaCl2 for EP4 binding assay or 50 mM Tris-Cl, BSA 0.5% for EP2 binding assay (according to supplier indication).
Ten microgram of protein from membrane fractions were incubated in a total volume of 0.1 ml (EP4) or 0.2 ml (EP2) with 1 nM (EP4) or 3 nM (EP2) [^3H]-PGE2 (PerkinElmer Inc, 171 Ci/mmol). In both assays to determine the total binding or non specific binding, 1% DMSO or 1 μM prostaglandin E2 (EP4) or 100 μM (EP2) were added to reaction mixtures, respectively. Incubation was conducted in a polypropylene 96 multiwell for 90 min (EP4) or 60 min (EP2) at room temperature prior to separation of the bound and free radioligand by vacuum manifold rapid filtration on glass fiber filters (Unifilter GFB96, PerkinElmer Inc) pre-soaked in 0.3% polyethyleneimine. Filters were washed with ice cold buffer pH 7.4 (50 mM HEPES, NaCl 500 mM, BSA 0.1% for EP4 binding assay or 50 mM Tris-Cl for EP2 binding assays) and the residual [^3H]-PGE2 binding determined by solid scintillation counter (TopCount, PerkinElmer Inc).
The affinity (Ki) of each compound was calculated according to the Cheng-Prousoff equation: Ki=IC50/(1+([C]/Kd)). Results were expressed as pKi (−log 10 Ki (M)
Compounds of example 1 to 82 were tested according to method of example 83a in a final concentration range from 1 nM to 1 μM.

T1 sequence (P35408 whole entry): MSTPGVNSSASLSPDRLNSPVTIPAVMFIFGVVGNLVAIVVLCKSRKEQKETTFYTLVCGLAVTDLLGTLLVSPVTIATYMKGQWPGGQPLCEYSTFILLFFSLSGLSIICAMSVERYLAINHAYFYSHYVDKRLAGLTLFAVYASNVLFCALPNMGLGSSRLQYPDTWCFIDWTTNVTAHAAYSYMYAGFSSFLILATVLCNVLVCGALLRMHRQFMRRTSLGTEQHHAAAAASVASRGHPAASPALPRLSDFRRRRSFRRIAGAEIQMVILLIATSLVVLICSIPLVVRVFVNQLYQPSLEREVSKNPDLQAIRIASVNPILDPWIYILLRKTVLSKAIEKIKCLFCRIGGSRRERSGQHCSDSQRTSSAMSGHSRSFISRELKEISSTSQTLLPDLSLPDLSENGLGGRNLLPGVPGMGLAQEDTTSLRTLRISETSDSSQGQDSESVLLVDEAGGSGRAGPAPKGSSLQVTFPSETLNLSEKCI

O=C(O)c1ccc(C2(NC(=O)c3cc(Cl)cnc3N3CCC(Oc4ccc(F)cc4)C3)CC2)cc1 (single isomer, unassigned) [E 68, 4-(1-(5-chloro-2-(3-(4-fluorophenoxy)pyrrolidin-1-yl)nicotinamido)cyclopropyl)benzoic acid]
IC50 (human EP4 receptor [1]): 66 nM
Ki (human EP4 receptor [2]): 31.6 nM

O=C(O)c1ccc(C2(NC(=O)c3cc(Cl)cnc3N3CCC(Oc4cccc(C(F)(F)F)c4)C3)CC2)cc1 (single isomer, unassigned) [E 64, 4-(1-(5-chloro-2-(3-(3-(trifluoromethyl)phenoxy)pyrrolidin-1-yl)nicotinamido)cyclopropyl)benzoic acid]
IC50 (human EP4 receptor [1]): 99 nM
Ki (human EP4 receptor [2]): 31.6 nM

O=C(O)c1ccc(C2(NC(=O)c3cc(C(F)(F)F)cnc3N3CC(Oc4ccc(F)c(F)c4)C3)CC2)cc1 [E 45, 4-(1-(2-(3-(3,4-difluorophenoxy)azetidin-1-yl)-5-(trifluoromethyl)nicotinamido)cyclopropyl)benzoic acid]
IC50 (human EP4 receptor [1]): 10 nM
Ki (human EP4 receptor [2]): 3.16 nM

O=C(O)c1ccc(C2(NC(=O)c3cc(Cl)cnc3N3CCCC3c3ccccc3)CC2)cc1 (single isomer, unassigned) [E 1, 4-(1-(5-chloro-2-(2-phenylpyrrolidin-1-yl)nicotinamido)cyclopropyl)benzoic acid]
IC50 (human EP4 receptor [1]): 235 nM
Ki (human EP4 receptor [2]): 398 nM

C[C@H](NC(=O)c1cc(Cl)cnc1N1CC(Oc2ccc(F)cc2)C1)c1ccc(C(=O)O)cc1 [E 11, (S)-4-(1-(5-chloro-2-(3-(4-fluorophenoxy)azetidin-1-yl)nicotinamido)ethyl)benzoic acid]
IC50 (human EP4 receptor [1]): 386 nM
Ki (human EP4 receptor [2]): 100 nM

O=C(O)c1ccc(C2(NC(=O)c3cc(Cl)cnc3N3CCC[C@@H]3COc3cccc(F)c3)CC2)cc1 [E 77, 4 (R)-4-(1-(5-chloro-2-(2-((3-fluorophenoxy)methyl)pyrrolidin-1-yl)nicotinamido)cyclopropyl)benzoic acid]
IC50 (human EP4 receptor [1]): 90 nM
Ki (human EP4 receptor [2]): 10 nM

O=C(O)c1ccc(C2(NC(=O)c3cc(C(F)(F)F)cnc3N3CC(Nc4ccc(F)cc4)C3)CC2)cc1 [E 50, 4-(1-(2-(3-((4-fluorophenyl)amino)azetidin-1-yl)-5-(trifluoromethyl)nicotinamido)cyclopropyl)benzoic acid]
IC50 (human EP4 receptor [1]): 23 nM
Ki (human EP4 receptor [2]): 12.6 nM

C[C@H](NC(=O)c1cc(Cl)cnc1N1CC(Oc2cccc(F)c2)C1)c1ccc(C(=O)O)cc1 [E 12, (S)-4-(1-(5-chloro-2-(3-(3-fluorophenoxy)azetidin-1-yl)nicotinamido)ethyl)benzoic acid]
IC50 (human EP4 receptor [1]): 102 nM
Ki (human EP4 receptor [2]): 15.8 nM

O=C(O)c1ccc(C2(NC(=O)c3cc(Cl)cnc3N3CC(Nc4ccc(F)cc4)C3)CC2)cc1 [E 33, 4-(1-(5-chloro-2-(3-((4-fluorophenyl)amino)azetidin-1-yl)nicotinamido)cyclopropyl)benzoic acid]
IC50 (human EP4 receptor [1]): 44.5 nM
Ki (human EP4 receptor [2]): 6.31 nM

O=C(O)c1ccc(C2(NC(=O)c3cc(Cl)cnc3N3CCC(c4ccccc4)C3)CC2)cc1 (single isomer, unassigned) [E 4, 4-(1-(5-chloro-2-(3-phenylpyrrolidin-1-yl)nicotinamido)cyclopropyl)benzoic acid]
IC50 (human EP4 receptor [1]): 102 nM
Ki (human EP4 receptor [2]): 200 nM

O=C(O)c1ccc(C2(NC(=O)c3cc(F)cnc3N3CC(Oc4cccc(OC(F)(F)F)c4)C3)CC2)cc1 [E 55, 4-(1-(5-fluoro-2-(3-(3-(trifluoromethoxy)phenoxy)azetidin-1-yl)nicotinamido)cyclopropyl)benzoic acid]
IC50 (human EP4 receptor [1]): 126 nM
Ki (human EP4 receptor [2]): 31.6 nM

O=C(O)c1ccc(C2(NC(=O)c3cc(Cl)cnc3N3CC(Nc4cccc(C(F)(F)F)c4)C3)CC2)cc1 [E 31, 4-(1-(5-chloro-2-(3-((3-(trifluoromethyl)phenyl)amino)azetidin-1-yl)nicotinamido)cyclopropyl)benzoic acid]
IC50 (human EP4 receptor [1]): 47 nM
Ki (human EP4 receptor [2]): 7.94 nM

O=C(O)c1ccc(C2(NC(=O)c3cc(Cl)cnc3N3CCC(Oc4cccc(F)c4)C3)CC2)cc1 (single isomer, unassigned) [E 69, 4-(1-(5-chloro-2-(3-(3-fluorophenoxy)pyrrolidin-1-yl)nicotinamido)cyclopropyl)benzoic acid]
IC50 (human EP4 receptor [1]): 308 nM
Ki (human EP4 receptor [2]): 50.1 nM

O=C(O)c1ccc(C2(NC(=O)c3cc(C(F)(F)F)cnc3N3CC(Oc4ccc(F)cc4)C3)CC2)cc1 [E 39, 4-(1-(2-(3-(4-fluorophenoxy)azetidin-1-yl)-5-(trifluoromethyl)nicotinamido)cyclopropyl)benzoic acid]
IC50 (human EP4 receptor [1]): 72 nM
Ki (human EP4 receptor [2]): 7.94 nM

O=C(O)c1ccc(C2(NC(=O)c3cc(Cl)cnc3N3CC(Nc4cccc(F)c4)C3)CC2)cc1 [E 32, 4-(1-(5-chloro-2-(3-((3-fluorophenyl)amino)azetidin-1-yl)nicotinamido)cyclopropyl)benzoic acid]
IC50 (human EP4 receptor [1]): 76 nM
Ki (human EP4 receptor [2]): 25.1 nM

O=C(O)c1ccc(C2(NC(=O)c3cc(Cl)cnc3N3CC(Oc4ccc(F)c(F)c4)C3)CC2)cc1 [E 20, 4-(1-(5-chloro-2-(3-(3,4-difluorophenoxy)azetidin-1-yl)nicotinamido)cyclopropyl)benzoic acid]
IC50 (human EP4 receptor [1]): 70 nM
Ki (human EP4 receptor [2]): 10 nM

O=C(O)c1ccc(C2(NC(=O)c3cc(Cl)cnc3N3CC(Oc4ccc(F)cc4)C3)CC2)cc1 [E 15, 4-(1-(5-chloro-2-(3-(4-fluorophenoxy)azetidin-1-yl)nicotinamido)cyclopropyl)benzoic acid]
IC50 (human EP4 receptor [1]): 70 nM
Ki (human EP4 receptor [2]): 12.6 nM

O=C(O)c1ccc(C2(NC(=O)c3cc(C(F)(F)F)cnc3N3CC(Oc4cccc(Cl)c4)C3)CC2)cc1 [E 41, 4-(1-(2-(3-(3-chlorophenoxy)azetidin-1-yl)-5-(trifluoromethyl)nicotinamido)cyclopropyl)benzoic acid]
IC50 (human EP4 receptor [1]): 7.7 nM
Ki (human EP4 receptor [2]): 5.01 nM

O=C(O)c1ccc(C2(NC(=O)c3cc(Cl)cnc3N3CCC(Oc4ccccc4)C3)CC2)cc1 (single isomer, unassigned) [E 60]
IC50 (human EP4 receptor [1]): 96.5 nM
Ki (human EP4 receptor [2]): 79.4 nM

O=C(O)c1ccc(C2(NC(=O)c3cc(Cl)cnc3N3CC(Oc4cccc(N5CCNCC5)c4)C3)CC2)cc1 [E 21, 4-(1-(5-chloro-2-(3-(3-(piperazin-1-yl)phenoxy)azetidin-1-yl)nicotinamido)cyclopropyl)benzoic acid]
IC50 (human EP4 receptor [1]): 191 nM
Ki (human EP4 receptor [2]): 63.1 nM

O=C(O)c1ccc(C2(NC(=O)c3cc(Cl)cnc3N3CC(O)(c4ccc(F)cc4)C3)CC2)cc1 [E 28, 4-(1-(5-chloro-2-(3-(4-fluorophenyl)-3-hydroxyazetidin-1-yl)nicotinamido)cyclopropyl)benzoic acid]
IC50 (human EP4 receptor [1]): 197 nM
Ki (human EP4 receptor [2]): 79.4 nM
